Test results as given in patent US8030494B2, “Optical recording material” (Adeka Corporation, priority 2006, dated 2011).

Test: Evaluation of light resistance (absorbance retention of spin-coated film after irradiation)
Assay type: physicochemical
Details: film spin-coated from 1% by mass 2,2,3,3-tetrafluoropropanol solution on polycarbonate plate; 55000 lux light for 100 hours; at λmax before irradiation
Experimental: The compounds obtained in Preparation Examples 1 to 8 and comparative compound No. 2 were evaluated for light resistance as follows. Each of the compounds was dissolved in 2,2,3,3-tetrafluoropropanol to prepare a 1% by mass solution. The solution was applied to a 20 mm by 20 mm polycarbonate plate by spin coating at 2000 rpm for 60 seconds to prepare a specimen. The specimen was irradiated with 55000 lux light for 100 hours. The UV absorption spectra measured before and after the irradiation were compared to calculate an absorbance retention at the λmax of the UV absorption spectrum before the irradiation.

Absorbance Retention (%): 0%
Structure (SMILES): C[N+]1=C(/C=C/c2ccccc2)C(C)(Cc2ccccc2)c2c1ccc1ccccc21 (stereo not shown) [comparative compound No. 2]
